# Experimental data as given in patent US11433052B2, “5-LOX and COX-2 inhibition for treatment in connection with blood-brain barrier dysfunction” (University of Kentucky Research Foundation, priority 2019, dated 2022).
# Experiments:
# [1] = test system: MMP; assay: MMP activity in isolated capillaries exposed to glutamate; assay type: cell-based, rat; conditions: 100 μM glutamate with 100 μM LCF
# Description: With reference to FIGS. 1A-1C, the effect of dual LOX-COX inhibition on glutamate-mediated capillary leakage was tested. Isolated rat brain capillaries were exposed to 100 μM glutamate with or without 100 μM of the dual LOX/COX inhibitor, licofelone (LCF). […] FIG. 1B is a bar graph illustrating MMP activity assessed in isolated capillaries exposed to 100 μM glutamate with or without LCF.
# [2] = test system: S100β; assay: Serum S100β ELISA in SE rats; assay type: in vivo, rat; conditions: 7 injections, 2 d after SE-induction with pilocarpine
# Description: With reference to FIGS. 2A and 2B, the effect of dual LOX-COX inhibition on seizure-mediated capillary leakage was tested. Rats were treated with 10 mg/kg LCF (i.p., 7 injections). Capillaries were isolated 2 d after status epilepticus (SE)-induction with pilocarpine. Serum levels of S100β were assessed by ELISA (Millipore). Statistics: ***p<0.001 (ANOVA). Data: mean±SEM. […] The effect of dual LOX-COX inhibition on seizure-mediated capillary leakage was further tested in rates treated with either 5 mg/kg or 10 mg/kg LCF (i.p., 7 injections). Capillaries were isolated 2 d after SE-induction with pilocarpine. Serum levels of S100β were assessed by ELISA (Millipore). […] With reference to FIGS. 4A and 4B, the effect of a combination of a LOX inhibitor and a COX inhibitor on seizure-mediated capillary leakage was tested. Rats were treated with zileuton (ZLT) and celecoxib (CEL) (5 mg/kg and 10 mg/kg; i.p., 7 injections). Capillaries were isolated 2 d after SE-induction with pilocarpine. Serum levels of S100β were assessed by ELISA (Millipore). Statistics: ***p<0.001 (ANOVA). Data: mean±SEM.
# [3] = test system: isolated rat brain capillaries; assay: Texas Red leakage assay, glutamate-mediated capillary leakage; assay type: cell-based; conditions: 100 μM glutamate with 100 μM LCF
# Description: (§1) With reference to FIGS. 1A-1C, the effect of dual LOX-COX inhibition on glutamate-mediated capillary leakage was tested. Isolated rat brain capillaries were exposed to 100 μM glutamate with or without 100 μM of the dual LOX/COX inhibitor, licofelone (LCF).
# [4] = test system: brain capillaries from pilocarpine-induced status epilepticus (SE) rats; assay: Texas Red leakage from capillary lumens, seizure-mediated capillary leakage in SE rats; assay type: in vivo, rat; conditions: 10 mg/kg LCF i.p., 7 injections; capillaries isolated 2 d after SE-induction with pilocarpine
# Description: With reference to FIGS. 2A and 2B, the effect of dual LOX-COX inhibition on seizure-mediated capillary leakage was tested. Rats were treated with 10 mg/kg LCF (i.p., 7 injections). Capillaries were isolated 2 d after status epilepticus (SE)-induction with pilocarpine. Texas Red (TR) leakage from capillary lumens was monitored by confocal microscopy. Mannitol served as a positive control for barrier opening. (Hartz et al., 2012). Data includes mean±SEM (n=10 capillaries); arbitrary units (0-255). B) S100β ELISA (Millipore). Statistics: ***p<0.001 (ANOVA). […] With reference to FIGS. 4A and 4B, the effect of a combination of a LOX inhibitor and a COX inhibitor on seizure-mediated capillary leakage was tested. Rats were treated with zileuton (ZLT) and celecoxib (CEL) (5 mg/kg and 10 mg/kg; i.p., 7 injections). Capillaries were isolated 2 d after SE-induction with pilocarpine. Texas Red (TR) leakage from capillary lumens monitored by confocal microscopy (mannitol: positive control for barrier opening; Hartz et al., 2012). Data: mean±SEM (n=10 capillaries); arbitrary units (0-255).
# [5] = test system: MMP-9; assay: Western blot of MMP-9 protein expression in capillaries exposed to glutamate; assay type: cell-based; conditions: isolated rat brain capillaries, 100 μM glutamate with 100 μM LCF
# Description: as §1, with “(LCF). […] FIG. 1A includes Western blots showing MMP-2 and MMP-9 protein expression in isolated rat brain capillaries exposed to 100 μM glutamate with or without LCF. β-Actin was used as protein loading control.” for “(LCF).”
# [6] = test system: MMP-2; assay: Western blot of MMP-2 protein expression in capillaries exposed to glutamate; assay type: cell-based; conditions: isolated rat brain capillaries, 100 μM glutamate with 100 μM LCF
# Description: as §1, with “(LCF). […] FIG. 1A includes Western blots showing MMP-2 and MMP-9 protein expression in isolated rat brain capillaries exposed to 100 μM glutamate with or without LCF. β-Actin was used as protein loading control.” for “(LCF).”
smiles,measurement,setting,value
CC1(C)Cc2c(-c3ccccc3)c(-c3ccc(Cl)cc3)c(CC(=O)O)n2C1 [licofelone],MMP activity,[1],did not show increased activity
same,"capillary leakage as reflected by S100β levels in serum from SE rats, dose dependence",[2]; 5 mg/kg or 10 mg/kg LCF i.p.,inhibit capillary leakage in a dose-dependent manner
same,S100β levels in serum from SE rats,[2]; 10 mg/kg LCF i.p.,reduces S100β levels
same,glutamate-mediated capillary leakage (Texas Red leakage),[3],reduced glutamate-mediated capillary leakage
same,glutamate-mediated capillary leakage (Texas Red leakage),[3]; listed as LCF,glutamate-mediated barrier leakage reduction
same,capillary leakage in SE rats (Texas Red leakage),[4],prevents capillary leakage
same,MMP-9 protein levels (Western blot),[5],did not show increased protein levels
same,MMP-2 protein levels (Western blot),[6],did not show increased protein levels
